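Assay format: 96-well plates, 48-hour exposure. Abbreviation: GI50, concentration required for 50% inhibition of growth. TGI: concentration producing complete growth inhibition.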
Assays:
Assay in all cases: inhibition of tumour cell growth, NCI panel, 48 h
OVCAR-3 ovarian = tested on: OVCAR-3 ovarian
DU-145 prostate = tested on: DU-145 prostate
A498 renal = tested on: A498 renal
HCC-2998 colon = tested on: HCC-2998 colon
A549 NSCLC = tested on: A549 NSCLC
UO-31 renal = tested on: UO-31 renal
NCI-H226 lung = tested on: NCI-H226 lung
HCT-15 colon = tested on: HCT-15 colon
CAKI-1 renal = tested on: CAKI-1 renal
IGROV1 ovarian = tested on: IGROV1 ovarian

SMILES	TGI (OVCAR-3 ovarian) [µM]	TGI (DU-145 prostate) [µM]	TGI (A498 renal) [µM]	TGI (HCC-2998 colon) [µM]	TGI (A549 NSCLC) [µM]	TGI (UO-31 renal) [µM]	TGI (NCI-H226 lung) [µM]	TGI (HCT-15 colon) [µM]	TGI (CAKI-1 renal) [µM]	TGI (IGROV1 ovarian) [µM]	GI50 (NCI-H226 lung) [µM]
O=C1NC2CCCCC2N=C1CC(=O)c1ccc(Br)cc1 (stereo unspecified)	> 100	> 100	> 100	> 100	> 100	> 100	81.2	> 100	> 100	> 100	–
CC1C(NNc2ccccc2)Oc2cc3c(cc2C1c1ccccc1O)OCO3 (stereo unspecified)	24.1	15.1	29.2	17	15.2	11	33.2	15.2	13.7	19.3	–
COc1ccc(C2C3=C(COC3=O)Oc3cc4c(cc32)OCO4)c(OC)c1 (stereo unspecified)	58.7	> 100	> 100	> 100	> 100	> 100	> 100	> 100	> 100	> 100	–
O=C(CCc1cc(O)cc(O)c1)NCCCNC(=O)CCc1cc(O)cc(O)c1	> 100	> 100	> 100	> 100	> 100	> 100	> 100	> 100	> 100	> 100	–
CCP(=O)(OC)C1=CCN(C(=O)OCC[Si](C)(C)C)CC1 (stereo unspecified)	> 100	> 100	> 100	> 100	> 100	> 100	> 100	> 100	> 100	> 100	–
Cc1ccc2c(c1)-c1c(C#N)c(N)nc(-c3ccc(Cl)cc3)c1CCS2(=O)=O	44.4	> 100	> 60.5	> 100	> 100	> 100	> 100	> 100	> 100	> 100	–
CC(C)C(CC(=O)OCC(CO)OC(=O)CC(C(C)C)C(C)C)C(C)C (stereo unspecified)	27.2	28.7	29.8	30.9	24	30.1	30.1	30.7	25.4	33.2	–
N#CC1(O)CCCCCCCCCCC1	> 100	> 100	> 100	> 100	> 100	> 100	> 100	> 100	> 100	> 100	–
CN(C)CCCNC(=O)c1cc(NC(=O)c2cc(NC(=O)CCCn3c4ccccc4c4ccccc43)cn2C)cn1C	> 72.5	40.8	44.3	18.7	> 67.7	> 58.2	39	> 75.5	43.5	> 75.9	9.26
Cn1c(=O)c(-c2ccccc2)c(O)c2ccccc21	> 100	> 100	> 100	> 100	> 100	> 100	> 100	> 100	> 100	> 100	–
CC1CCC2(NC1)OC1CC3C4CC=C5CC(OC6OC(CO)C(OC7OC(C)C(O)C(O)C7O)C(O)C6OC6OC(C)C(O)C(O)C6O)CCC5(C)C4CCC3(C)C1C2C (stereo unspecified)	4.09	8.61	11.8	4.72	9.59	21.1	7.97	16.9	8.66	15.5	–
CN(C)CC1CCC/C(=C\c2ccc(OC(=O)c3ccc(Cl)cc3)cc2)C1=O (stereo unspecified)	3.36	6.79	22.6	> 29	7.26	2.97	9.77	3.3	5.13	8.27	–
O=C(O)c1cccc2cccc(-c3cccc4cccc(C(=O)O)c34)c12	> 100	> 100	> 100	> 100	> 100	> 100	> 100	> 100	> 100	> 100	–
CCC(O)(Cc1ccc(OC)cc1)c1ccc(OC)cc1 (stereo unspecified)	> 100	> 100	> 100	> 100	> 100	> 100	> 100	> 100	> 100	> 100	–
CCC(CO)Nc1nc(NCc2ccccc2)c2ncn(C(C)C)c2n1 (stereo unspecified)	37.9	> 100	77.3	34.7	> 100	40.7	39.4	> 100	> 82.5	> 100	–
CSc1nc(NC(C)C)c2c(n1)Sc1nc3ccccc3n1N=C2	25.1	31.3	12.6	25.3	38.6	25.6	> 100	> 100	> 100	> 100	–
C=C1OC(c2ccccc2NC)=NC12CCCCC2	> 100	> 100	> 100	> 100	> 100	> 100	> 100	> 100	> 100	> 100	–

SMILES	TGI (OVCAR-3 ovarian) [µM]	TGI (DU-145 prostate) [µM]	TGI (A498 renal) [µM]	TGI (HCC-2998 colon) [µM]	TGI (A549 NSCLC) [µM]	TGI (UO-31 renal) [µM]	TGI (NCI-H226 lung) [µM]	TGI (HCT-15 colon) [µM]	TGI (CAKI-1 renal) [µM]	TGI (IGROV1 ovarian) [µM]	GI50 (NCI-H226 lung) [µM]
C=C(C)OCOCCOC	> 100	> 100	> 100	> 100	> 100	> 100	> 100	> 100	> 100	> 100	–
CC1=NN(c2nc(N)nc(-c3sccc3N)n2)C(C)(C)C1	> 100	> 100	> 100	> 100	> 100	> 100	> 100	> 100	> 100	> 100	–
Cc1c(CN2CCN(C)CC2)c(CN2CCN(C)CC2)c(C)n1-c1ccc(Cl)cc1	> 100	> 100	51.2	> 100	91.1	87.9	> 100	> 100	59.9	> 100	–
COc1cc(CC(C)NC(C)=O)cc(OC)c1 (stereo unspecified)	> 100	> 100	> 100	> 100	> 100	> 100	> 100	> 100	> 100	> 100	–
CCCCSc1nsc(N(C(=O)c2ccccc2)C(=O)c2ccccc2)n1	61.1	> 100	88.8	74.4	> 100	39.5	93.9	> 100	> 100	> 100	–
Cn1c(=O)c2c(nc3n(Cc4ccccc4)c(=O)c(NCCCBr)cn23)n(C)c1=O	> 100	> 100	> 100	> 100	> 100	> 100	> 100	> 100	> 100	> 100	–
Cc1cc(S(=O)(=O)Nc2n[nH]c(-c3ccccn3)n2)c(S)cc1Cl	64.3	96	30.5	30.2	41.9	10.5	30.5	20.9	15.7	85.4	–
CS(=O)(=O)Nc1ccc2c(c1)N(S(C)(=O)=O)CC2CCl (stereo unspecified)	> 100	> 100	> 100	> 100	> 100	> 100	> 100	> 100	> 100	> 100	–
COc1ccccc1CN=C1Nc2ccncc2S(=O)(=O)N1c1ccccc1	> 100	> 100	> 100	> 100	> 100	> 100	> 100	> 100	> 100	> 100	–
Cc1cc(S(=O)(=O)/N=C(/C(=C=[N-])C#N)[n+]2ccc(N(C)C)cc2)c(SCC(=O)O)cc1Cl	> 100	> 100	> 100	> 100	> 100	> 100	> 100	> 100	> 100	> 100	–
C=C1C(OC2O[C@@H]3O[C@@]4(C)CC[C@H]5[C@H](C)CC[C@@H](C2=C)[C@@]35O4)O[C@@H]2O[C@@]3(C)CC[C@H]4[C@H](C)CC[C@@H]1[C@@]24O3 (stereo partly specified)	> 50	> 50	> 50	> 50	> 50	> 50	> 50	> 50	> 50	> 50	–
COc1cc(C(=O)Oc2ccc3c(c2)OCO3)cc(OC)c1OC	> 100	> 100	> 100	> 100	> 100	> 100	> 100	> 100	> 100	> 100	–
COC(=O)C1(CCCCCBr)CCCCCCCCCCC1=O (stereo unspecified)	> 100	> 100	64.7	> 100	> 100	31.8	66.6	> 100	53.9	87.2	–
S=C(N/N=C\C(=N/NC(=S)N1CCCCC1)c1ccccc1)N1CCCCC1	3.68	3.02	3.18	3.9	5.62	3.39	3.38	5.1	4.66	3.45	–
COC(=O)C1C(C(=O)OC)C2(OC(c3ccc(Cl)cc3)=CC2=O)C12OC(c1ccc(Cl)cc1)=CC2=O (stereo unspecified)	42	> 100	76.1	36.8	> 100	33.6	> 100	35.2	59	47.7	–
CCn1c2ccc(C(=O)CCCN3CCCCC3)cc2c2cc(C(=O)CCCN3CCCCC3)ccc21	5.3	18.2	10.3	23.8	3.86	18.6	27.2	5.45	8.54	8.73	–

— PubChem BioAssay (NCI)
